# Measured values taken from the NIST ThermoML archive (doi:10.1016/j.jct.2004.04.003).
# ± gives the expanded uncertainty stated by the source.
# Columns and labels:
# [1] = molar heat capacity at saturation pressure
# [2] = for vapor or sublimation pressure: Twin ebulliometer; for Triple point temperature: Adiabatic calorimetry
compound,measurement,setting,value
"C1CCC(C2CCCC2)C1 [1,1'-bicyclopentyl]",molar heat capacity,"[1]; 202.37 K, Crystal 1, Vacuum adiabatic calorimetry",157.69 ± 0.36 J/K/mol
same,molar heat capacity,"[1]; 210 K, Crystal 1, Vacuum adiabatic calorimetry",164.11 ± 0.37 J/K/mol
same,molar heat capacity,"[1]; 210.53 K, Crystal 1, Vacuum adiabatic calorimetry",164.59 ± 0.37 J/K/mol
same,molar heat capacity,"[1]; 215.22 K, Crystal 1, Vacuum adiabatic calorimetry",168.8 ± 0.37 J/K/mol
same,molar heat capacity,"[1]; 218.83 K, Crystal 1, Vacuum adiabatic calorimetry",172.67 ± 0.37 J/K/mol
same,molar heat capacity,"[1]; 220 K, Crystal 1, Vacuum adiabatic calorimetry",173.41 ± 0.37 J/K/mol
same,molar heat capacity,"[1]; 223.28 K, Crystal 1, Vacuum adiabatic calorimetry",177.54 ± 0.38 J/K/mol
same,molar heat capacity,"[1]; 230 K, Crystal 1, Vacuum adiabatic calorimetry",183.54 ± 0.38 J/K/mol
same,molar heat capacity,"[1]; 230.93 K, Crystal 1, Vacuum adiabatic calorimetry",187.18 ± 0.39 J/K/mol
same,molar heat capacity,"[1]; 235.7 K, Liquid, Vacuum adiabatic calorimetry",209.39 ± 0.41 J/K/mol
same,molar heat capacity,"[1]; 237.82 K, Crystal 1, Vacuum adiabatic calorimetry",192.05 ± 0.39 J/K/mol
same,molar heat capacity,"[1]; 237.82 K, Liquid, Vacuum adiabatic calorimetry",210.18 ± 0.41 J/K/mol
same,molar heat capacity,"[1]; 240 K, Liquid, Vacuum adiabatic calorimetry",211.02 ± 0.41 J/K/mol
same,molar heat capacity,"[1]; 242.86 K, Liquid, Vacuum adiabatic calorimetry",212.18 ± 0.42 J/K/mol
same,molar heat capacity,"[1]; 250 K, Liquid, Vacuum adiabatic calorimetry",215.09 ± 0.42 J/K/mol
same,molar heat capacity,"[1]; 251.35 K, Liquid, Vacuum adiabatic calorimetry",215.65 ± 0.42 J/K/mol
same,molar heat capacity,"[1]; 251.38 K, Liquid, Vacuum adiabatic calorimetry",215.6 ± 0.42 J/K/mol
same,molar heat capacity,"[1]; 260 K, Liquid, Vacuum adiabatic calorimetry",219.43 ± 0.42 J/K/mol
same,molar heat capacity,"[1]; 260.38 K, Liquid, Vacuum adiabatic calorimetry",219.61 ± 0.42 J/K/mol
same,molar heat capacity,"[1]; 260.4 K, Liquid, Vacuum adiabatic calorimetry",219.59 ± 0.42 J/K/mol
same,molar heat capacity,"[1]; 269.99 K, Liquid, Vacuum adiabatic calorimetry",224.12 ± 0.42 J/K/mol
same,molar heat capacity,"[1]; 270 K, Liquid, Vacuum adiabatic calorimetry",224.11 ± 0.42 J/K/mol
same,molar heat capacity,"[1]; 279.85 K, Liquid, Vacuum adiabatic calorimetry",228.87 ± 0.43 J/K/mol
same,molar heat capacity,"[1]; 280 K, Liquid, Vacuum adiabatic calorimetry",228.97 ± 0.43 J/K/mol
same,molar heat capacity,"[1]; 289.97 K, Liquid, Vacuum adiabatic calorimetry",234.24 ± 0.43 J/K/mol
same,molar heat capacity,"[1]; 290 K, Liquid, Vacuum adiabatic calorimetry",234.26 ± 0.43 J/K/mol
same,molar heat capacity,"[1]; 298.15 K, Liquid, Vacuum adiabatic calorimetry",238.69 ± 0.44 J/K/mol
same,molar heat capacity,"[1]; 300 K, Liquid, Vacuum adiabatic calorimetry",239.71 ± 0.44 J/K/mol
same,molar heat capacity,"[1]; 300.32 K, Liquid, Vacuum adiabatic calorimetry",239.88 ± 0.44 J/K/mol
same,molar heat capacity,"[1]; 303.62 K, Liquid, Vacuum adiabatic calorimetry",241.76 ± 0.44 J/K/mol
same,molar heat capacity,"[1]; 312.36 K, Liquid, Vacuum adiabatic calorimetry",246.68 ± 0.45 J/K/mol
same,molar heat capacity,"[1]; 320 K, Liquid, Vacuum adiabatic calorimetry",251.11 ± 0.45 J/K/mol
same,molar heat capacity,"[1]; 321.76 K, Liquid, Vacuum adiabatic calorimetry",252.14 ± 0.45 J/K/mol
same,molar heat capacity,"[1]; 331.4 K, Liquid, Vacuum adiabatic calorimetry",257.76 ± 0.46 J/K/mol
same,molar heat capacity,"[1]; 340 K, Liquid, Vacuum adiabatic calorimetry",262.83 ± 0.47 J/K/mol
same,molar heat capacity,"[1]; 340.79 K, Liquid, Vacuum adiabatic calorimetry",263.29 ± 0.47 J/K/mol
same,molar heat capacity,"[1]; 350.44 K, Liquid, Vacuum adiabatic calorimetry",269.11 ± 0.47 J/K/mol
same,molar heat capacity,"[1]; 360 K, Liquid, Vacuum adiabatic calorimetry",274.85 ± 0.47 J/K/mol
same,molar heat capacity,"[1]; 360.31 K, Liquid, Vacuum adiabatic calorimetry",275.02 ± 0.47 J/K/mol
same,molar heat capacity,"[1]; 369.98 K, Liquid, Vacuum adiabatic calorimetry",281.03 ± 0.48 J/K/mol
same,molar heat capacity,"[1]; 379.48 K, Liquid, Vacuum adiabatic calorimetry",286.87 ± 0.49 J/K/mol
same,molar heat capacity,"[1]; 380 K, Liquid, Vacuum adiabatic calorimetry",287.22 ± 0.49 J/K/mol
same,molar heat capacity,"[1]; 388.81 K, Liquid, Vacuum adiabatic calorimetry",292.97 ± 0.49 J/K/mol
same,molar heat capacity,"[1]; 400 K, Liquid, Vacuum adiabatic calorimetry",299.69 ± 0.5 J/K/mol
same,molar heat capacity,"[1]; 420 K, Liquid",312.05 ± 3.1 J/K/mol
same,molar heat capacity,"[1]; 440 K, Liquid",324.49 ± 3.2 J/K/mol
same,molar heat capacity,"[1]; 460 K, Liquid",336.88 ± 3.4 J/K/mol
same,molar heat capacity,"[1]; 480 K, Liquid",349.1 ± 3.5 J/K/mol
same,molar heat capacity,"[1]; 500 K, Liquid",361.07 ± 3.6 J/K/mol
same,molar heat capacity,"[1]; 520 K, Liquid",372.68 ± 3.7 J/K/mol
same,molar heat capacity,"[1]; 540 K, Liquid",383.83 ± 3.8 J/K/mol
same,molar heat capacity,"[1]; 560 K, Liquid",394.48 ± 3.9 J/K/mol
same,molar heat capacity,"[1]; 580 K, Liquid",404.71 ± 4 J/K/mol
same,molar heat capacity,"[1]; 600 K, Liquid",414.76 ± 4.1 J/K/mol
same,vapor or sublimation pressure,"[2]; 384 K, Liquid",9.59 ± 0.013 kPa
same,vapor or sublimation pressure,"[2]; 387.47 K, Liquid",10.89 ± 0.013 kPa
same,vapor or sublimation pressure,"[2]; 390.95 K, Liquid",12.35 ± 0.014 kPa
same,vapor or sublimation pressure,"[2]; 394.45 K, Liquid",13.96 ± 0.014 kPa
same,vapor or sublimation pressure,"[2]; 397.96 K, Liquid",15.75 ± 0.015 kPa
same,vapor or sublimation pressure,"[2]; 401.49 K, Liquid",17.74 ± 0.016 kPa
same,vapor or sublimation pressure,"[2]; 405.02 K, Liquid",19.93 ± 0.018 kPa
same,vapor or sublimation pressure,"[2]; 405.03 K, Liquid",19.93 ± 0.018 kPa
same,vapor or sublimation pressure,"[2]; 412.15 K, Liquid",25.02 ± 0.019 kPa
same,vapor or sublimation pressure,"[2]; 419.33 K, Liquid",31.18 ± 0.022 kPa
same,vapor or sublimation pressure,"[2]; 426.57 K, Liquid",38.56 ± 0.025 kPa
same,vapor or sublimation pressure,"[2]; 433.87 K, Liquid",47.38 ± 0.029 kPa
same,vapor or sublimation pressure,"[2]; 441.22 K, Liquid",57.82 ± 0.034 kPa
same,vapor or sublimation pressure,"[2]; 448.61 K, Liquid",70.12 ± 0.039 kPa
same,vapor or sublimation pressure,"[2]; 456.08 K, Liquid",84.53 ± 0.044 kPa
same,vapor or sublimation pressure,"[2]; 463.61 K, Liquid",101.33 ± 0.05 kPa
same,vapor or sublimation pressure,"[2]; 471.19 K, Liquid",120.79 ± 0.06 kPa
same,vapor or sublimation pressure,"[2]; 478.83 K, Liquid",143.25 ± 0.07 kPa
same,vapor or sublimation pressure,"[2]; 486.53 K, Liquid",169.02 ± 0.07 kPa
same,vapor or sublimation pressure,"[2]; 494.28 K, Liquid",198.49 ± 0.08 kPa
same,vapor or sublimation pressure,"[2]; 502.09 K, Liquid",232.02 ± 0.09 kPa
same,vapor or sublimation pressure,"[2]; 509.97 K, Liquid",270.02 ± 0.1 kPa
same,mass density,"[2]; 662.5 K, Gas",114.4 ± 11 kg/m3
same,mass density,"[2]; 682.8 K, Gas",171.2 ± 17 kg/m3
same,mass density,"[2]; 685.1 K, Liquid",366 ± 37 kg/m3
same,mass density,"[2]; 687.3 K, Liquid",347.2 ± 35 kg/m3
same,mass density,"[2]; 689.6 K, Liquid",311 ± 31 kg/m3
same,mass density,"[2]; 689.8 K, Gas",244.4 ± 24 kg/m3
same,Triple point temperature,[2]; Crystal 1,237.82 ± 0.05 K
same,Triple point temperature,[2]; Crystal 2,171.5 ± 3 K
same,Triple point temperature,[2]; Crystal 3,128.4 ± 3 K
same,Critical temperature,"[2]; Liquid, DTA",690 ± 2 K
